Like-named read-outs stand apart in the source and are kept apart here.
Test system: HIV-1 (NL4-3 strain)
Experiment: Assay for Inhibition of HIV Replication (kinetic assay, MT4-gag-GFP reporter cell line; VIKING)
Type: cell-based
In short: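 MT4-gag-GFP cells infected with HIV-1 NL4-3 at low MOI for 24 h were seeded with compound (0.4% DMSO) in medium with 0%, 10% or 100% normal human serum. GFP-positive cells were counted at 24 and 48 h, and R0 was the 48 h/24 h ratio. Inhibition was scaled to DMSO and triple-drug controls, and IC50 came from 4-parameter fits.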

[1] = MT4-GFP cells infected with HIV-1 NL4-3, 0% normal human serum (NHS), read-out: VIKING IP50 (nM) with 0% NHS
[2] = MT4-GFP cells infected with HIV-1 NL4-3, 100% normal human serum (NHS), read-out: VIKING IP50 (nM) with 100% NHS
[3] = Human immunodeficiency virus 1, NL43, MT4-GFP cells infected with HIV-1 NL4-3, 0% normal human serum (NHS), read-out: VIKING IP50 (nM) with 0% NHS
[4] = Human immunodeficiency virus 1, NL43, MT4-GFP cells infected with HIV-1 NL4-3, 100% normal human serum (NHS), read-out: VIKING IP50 (nM) with 100% NHS

SMILES | IC50 [1] [nM] | IC50 [2] [nM] | IC50 [3] [nM] | IC50 [4] [nM]
O=C(NCc1c(F)cc(F)cc1F)c1c2n3c(c(O)c1=O)C(=O)N1C4CCC(C4)OC1C3CC2 (stereo not drawn) [Compound 170] | 2.59 | 5360 |  | 
C[C@@H]1CN2C(=O)c3c(O)c(=O)c(C(=O)NCc4cccc(Cl)c4F)c4n3C(CC4)C2O1 (single isomer, unassigned) [Compound 41] | 0.854 | 2380 |  | 
CCNC1CC2C3OCCCN3C(=O)c3c(O)c(=O)c(C(=O)NCc4ccc(F)cc4F)c1n32 (stereo not drawn) [Compound 201] | 8.98 | 2060 |  | 
CCNC1CC2C3OCCCN3C(=O)c3c(O)c(=O)c(C(=O)NCc4cccc(Cl)c4F)c1n32 (stereo not drawn) [Compound 193] | 7.89 | 2910 |  | 
C[C@H]1CN2C(=O)c3c(O)c(=O)c(-c4nnc(Cc5ccc(F)cc5F)s4)c4n3C(CC4)C2N1 (stereo partly drawn) [Compound 131] | 2.33 | 36.1 |  | 
CCNC1C[C@@H]2[C@H]3OC4CCC(C4)N3C(=O)c3c(O)c(=O)c(C(=O)NCc4ccc(F)cc4F)c1n32 (stereo partly drawn) [Compound 174] |  |  | 30.2 | 114
C[C@H]1CNC2C3CCc4c(C(=O)NCc5ccc(F)cc5F)c(=O)c(O)c(n43)C(=O)N21 (stereo partly drawn) [Compound 101] | 1.99 | 23.4 |  | 
O=C(NCc1c(F)cc(F)cc1F)c1c2n3c(c(O)c1=O)C(=O)N1C4CCC(C4)OC1C3CC2 (stereo not drawn) [Compound 168] |  | 1620 | 3.72 | 
O=C(NCc1ccc(F)cc1)c1c2n3c(c(O)c1=O)C(=O)N1C4CCC(C4)OC1C3CC2 (stereo not drawn) [Compound 160] |  | 73.1 | 4.14 | 
O=C(NCc1cccc(Cl)c1F)c1c2n3c(c(O)c1=O)C(=O)N1CCOC1C3CC2 (single isomer, unassigned) [Compound 3] |  | 372 | 0.478 | 
CCNC1CC2C3OCCCN3C(=O)c3c(O)c(=O)c(C(=O)NCc4ccc(F)cc4F)c1n32 (stereo not drawn) [Compound 203] | 6.47 | 25.8 |  | 
C[C@H]1COC2C3CCc4c(C(=O)NCc5cccc(Cl)c5F)c(=O)c(O)c(n43)C(=O)N21 (single isomer, unassigned) [Compound 30] | 0.536 | 838 |  | 
CCNC1CC2C3OCCCN3C(=O)c3c(O)c(=O)c(C(=O)NCc4cccc(Cl)c4F)c1n32 (stereo not drawn) [Compound 200] | 10.1 | 67.3 |  | 
COC1CC2C3OCCN3C(=O)c3c(O)c(=O)c(C(=O)NCc4ccc(F)cc4F)c1n32 (single isomer, unassigned) [Compound 78] | 2.12 | 534 |  | 
COC1CC2C3OCCN3C(=O)c3c(O)c(=O)c(C(=O)NCc4ccc(F)cc4F)c1n32 (single isomer, unassigned) [Compound 77] | 1.56 | 2160 |  | 
C[C@H]1CCOC2C3CCc4c(C(=O)NCc5ccc(F)cc5F)c(=O)c(O)c(n43)C(=O)N21 (single isomer, unassigned) [Compound 61] | 22.1 |  |  | 8000
CCNC1CC2C3OCCCN3C(=O)c3c(O)c(=O)c(C(=O)NCc4cccc(Cl)c4F)c1n32 (stereo not drawn) [Compound 197] | 14 | 15100 |  | 

SMILES | IC50 [1] [nM] | IC50 [2] [nM] | IC50 [3] [nM] | IC50 [4] [nM]
C[C@H]1COC2C3CCc4c(C(=O)NCc5cccc(Cl)c5F)c(=O)c(O)c(n43)C(=O)N21 (single isomer, unassigned) [Compound 29] |  | 3410 | 0.412 | 
CN1CCCN2C(=O)c3c(O)c(=O)c(C(=O)NCc4ccc(F)cc4F)c4n3C(CC4)C12 (single isomer, unassigned) [Compound 83] | 0.857 | 16.8 |  | 
CCNC1CC2C3OCCCN3C(=O)c3c(O)c(=O)c(C(=O)NCc4cccc(Cl)c4F)c1n32 (stereo not drawn) [Compound 196] | 15.3 | 883 |  | 
C[C@H]1CN2C(=O)c3c(O)c(=O)c(C(=O)NCc4cccc(Cl)c4F)c4n3C(CC4)C2N1 (stereo partly drawn) [Compound 94] | 0.503 | 14.5 |  | 
CCNC1CC2C3OCCCN3C(=O)c3c(O)c(=O)c(C(=O)NCc4cccc(F)c4F)c1n32 (stereo not drawn) [Compound 189] | 11 | 3870 |  | 
O=C(NCc1ccc(F)cc1F)c1c2n3c(c(O)c1=O)C(=O)N1CCCOC1C3CC2 (single isomer, unassigned) [Compound 56] | 0.701 | 1800 |  | 
CCNC1CC2C3OCCCN3C(=O)c3c(O)c(=O)c(C(=O)NCc4c(F)cc(F)cc4F)c1n32 (stereo not drawn) [Compound 181] | 6.41 | 29.9 |  | 
C[C@H]1CN2C(=O)c3c(O)c(=O)c(C(=O)NCc4cccc(Cl)c4F)c4n3C(CC4)C2N1S(C)(=O)=O (stereo partly drawn) [Compound 118] |  | 1280 | 8.73 | 
O=C(NCc1ccc(F)cc1F)c1c2n3c(c(O)c1=O)C(=O)N1CCCCOC1C3CC2 (single isomer, unassigned) [Compound 69] |  | 349 | 1.36 | 
O=C(NCc1cccc(F)c1F)c1c2n3c(c(O)c1=O)C(=O)N1C4CCC(C4)OC1C3CC2 (stereo not drawn) [Compound 165] | 6.42 | 56.1 |  | 
O=C(NCc1ccc(F)cc1)c1c2n3c(c(O)c1=O)C(=O)N1C4CCC(C4)OC1C3CC2 (stereo not drawn) [Compound 162] | 3.9 | 50.4 |  | 
O=C(NCc1ccc(F)c(Cl)c1F)c1c2n3c(c(O)c1=O)C(=O)N1C4CCC(C4)OC1C3CC2 (stereo not drawn) [Compound 159] | 5.85 | 89.3 |  | 
CCNC1CC2C3OCCCN3C(=O)c3c(O)c(=O)c(C(=O)NCc4cccc(F)c4F)c1n32 (stereo not drawn) [Compound 192] | 8.76 | 92.3 |  | 
C[C@H]1CN2C(=O)c3c(O)c(=O)c(C(=O)NCc4cccc(Cl)c4F)c4n3C(CC4)C2N1C (stereo partly drawn) [Compound 105] | 0.495 | 32.6 |  | 
C[C@H]1CN2C(=O)c3c(O)c(=O)c(C(=O)NCc4ccc(F)cc4F)c4n3C(CC4)C2N1 (stereo partly drawn) [Compound 95] |  |  | 2.59 | 124
C[C@H]1COC2C3CCc4c(C(=O)NCc5cccc(Cl)c5F)c(=O)c(O)c(n43)C(=O)N21 (single isomer, unassigned) [Compound 31] | 0.418 | 197 |  | 
